Measurements reported in ChEMBL document CHEMBL5724696, “Autophagy assay results for EUbOPEN Chemogenomics Library” (2024).
“And” between values parts separate entries of the source, which are not always exact repeats. Identical values can stand only once.

Tests used:
Assay type in all cases: functional, Homo sapiens
U2OS [1] = assay: (§1) Here: values are normalized to the negative (DMSO; defined as 0% autophagy induction) and positive (250nM Torin1; mTOR inhibitor; defined as maximal inducer of autophagy = 100%) control compounds and represented as % of autophagy induction. […] The impact of autophagy induction on cells is complex and depends on the affected target. As such, the magnitude of a phenotype may not be equally mirrored in the %-value of autophagy induction and vice versa. The dynamics of the induction may indicate the mode of activation: e.g. activation via phosphorylation or a signaling cascade may occur fast, while activation via transcription factors may take considerably longer. […] Of note, treatment concentrations may be sub-optimal for specific compounds, leading to false negative annotations.; settings: Culturing Media DMEM, 1 % Penicillin/Streptomycin, 10% Fetal bovin serum Add-On: No, Screening Media Control DMEM, Screening Media Samples DMEM
TERT-RPE1 = assay: as §1; settings: Culturing Media DMEM/F12 (1:1), 1 % Penicillin/Streptomycin, 10% Fetal bovin serum Add-On: No, Screening Media Control DMEM/F12 (1:1), Screening Media Samples DMEM/F12 (1:1)
U2OS [2] = assay: as §1; settings: Culturing Media DMEM, 1 % Penicillin/Streptomycin, 10% Fetal bovin serum Add-On: No, Screening Media Control DMEM, Screening Media Samples DMEM; remark: listed apart in the source
[3] = Compound Concentration 0.5 uM, Timepoint 12 hours
[4] = Compound Concentration 0.5 uM, Timepoint 24 hours
[5] = Compound Concentration 0.5 uM, Timepoint 36 hours
[6] = Compound Concentration 0.5 uM, Timepoint 60 hours
[7] = Compound Concentration 2 uM, Timepoint 12 hours
[8] = Compound Concentration 2 uM, Timepoint 24 hours
[9] = Compound Concentration 2 uM, Timepoint 36 hours
[10] = Compound Concentration 2 uM, Timepoint 60 hours
[11] = Compound Concentration 10 uM, Timepoint 12 hours
[12] = Compound Concentration 10 uM, Timepoint 24 hours
[13] = Compound Concentration 10 uM, Timepoint 36 hours
[14] = Compound Concentration 10 uM, Timepoint 60 hours

Row | SMILES | autophagy induction (U2OS [1]; [3]) [%] | autophagy induction (U2OS [1]; [4]) [%] | autophagy induction (U2OS [1]; [5]) [%] | autophagy induction (U2OS [1]; [6]) [%] | autophagy induction (U2OS [1]; [7]) [%] | autophagy induction (U2OS [1]; [8]) [%] | autophagy induction (U2OS [1]; [9]) [%] | autophagy induction (U2OS [1]; [10]) [%] | autophagy induction (U2OS [1]; [11]) [%] | autophagy induction (U2OS [1]; [12]) [%] | autophagy induction (U2OS [1]; [13]) [%] | autophagy induction (U2OS [1]; [14]) [%] | autophagy induction (U2OS [2]; [3]) [%] | autophagy induction (U2OS [2]; [4]) [%] | autophagy induction (U2OS [2]; [5]) [%] | autophagy induction (U2OS [2]; [6]) [%] | autophagy induction (U2OS [2]; [7]) [%] | autophagy induction (U2OS [2]; [8]) [%] | autophagy induction (U2OS [2]; [9]) [%] | autophagy induction (U2OS [2]; [10]) [%] | further results
1 | COc1ccc(C2(O)OC(=O)C(c3ccc4c(c3)OCO4)=C2Cc2cc(OC)c(OC)c(OC)c2)cc1 (stereo unspecified) [PD-156707] | 2.427 | 7.779 | 2.534 | -0.8382 | -5.016 | 3.24 | -2.65 | -6.1634 | -12.4956 | -10.1664 | -12.3712 | -18.4825 | -0.3009 | 0.4369 | -0.07956 | -0.9865 | -2.496 | -1.926 | -0.6682 | -1.242 | autophagy induction (TERT-RPE1; [3]): -7.977%; autophagy induction (TERT-RPE1; [4]): -6.312%; autophagy induction (TERT-RPE1; [5]): -1.3569%; autophagy induction (TERT-RPE1; [6]): 6.352%; autophagy induction (TERT-RPE1; [7]): -3.2518%; autophagy induction (TERT-RPE1; [8]): -7.638%; autophagy induction (TERT-RPE1; [9]): -7.617%; autophagy induction (TERT-RPE1; [10]): -7.701%; autophagy induction (TERT-RPE1; [11]): -8.81%; autophagy induction (TERT-RPE1; [12]): -9.172%; autophagy induction (TERT-RPE1; [13]): -8.276%; autophagy induction (TERT-RPE1; [14]): -11.0822%; autophagy induction (U2OS [2]; [11]): -0.3825%; autophagy induction (U2OS [2]; [12]): -1.441%; autophagy induction (U2OS [2]; [13]): -0.8744%; autophagy induction (U2OS [2]; [14]): -0.2319%
2 | CCC[C@H](Oc1cc(C)c(-n2cc(C(F)(F)F)cn2)c(C)c1)c1ccc(C(=O)NCCC(=O)O)cc1 [PF-06291874] | -11.4233 | -19.405 | -11.4713 | -20.1699 | -1.65 | -7.926 | -7.132 | -11.198 | 3.31 | 3.258 | -0.5015 | -15.9451 | -5.893 | -2.993 | -60.6887 | -2.982 | -4.845 | -1.051 | -59.3505 | -1.615 | autophagy induction (TERT-RPE1; Compound Concentration 0.5 uM, Timepoint 36 hours, 36 h, 0.5 µM): -0.178% and 20.1142%; autophagy induction (U2OS [2]; [11]): -7.606%; autophagy induction (U2OS [2]; [12]): -1.597%; autophagy induction (U2OS [2]; [13]): -60.4241%; autophagy induction (U2OS [2]; [14]): -2.455%
